# Source: patent US11234982B2, “Methods for treating ocular surface pain” (NOVARTIS AG, priority 2019, dated 2022)
# Like-named read-outs stand apart in the source and are kept apart here.
# What was measured:
# [1] = tested on: patients undergoing photorefractive keratectomy (PRK) surgery; assay: PRK study: oral rescue medication (ORM) use; format: in vivo, human; conditions: for Number of patients who did not use oral rescue medication: 2.5%; for Number of patients who did not use oral rescue medication / Amount of oral rescue medication (Number of pills), Mean (SD) / Amount of oral rescue medication (Number of pills), Range / Amount of oral rescue medication (mg/kg of body weight), Range / Amount of oral rescue medication (mg/kg of body weight), Mean (SD): N = 40; for Amount of oral rescue medication (mg/kg of body weight), Mean (SD): tablet counted as 330 mg
# Experimental: The study was a proof of concept, double-masked, randomized, vehicle-controlled study of compound I administered as eye drops in addition to standard of care treatment in patients after PRK surgery. PRK surgery was performed as an outpatient procedure under topical anesthesia with removal of the corneal epithelium to expose the stroma for the laser ablation. Compound I dosing was as single eye drop of 2.5% (25 mg/ml, 0.925 mg/drop), administered four times daily (every six hours) in one eye from immediate post-op (time 0) to last dose at 72 hours.
# Rescue medication consisted of oral analgesic (acetaminophen 300 mg+codeine 30 mg) as needed up to a total of 10 tabs/day or 1-2 tabs every 4 hours.
# Rescue oral analgesics: It is not ethical to refuse pain control medication to patients postoperatively as part of a clinical trial. […] Because the use of oral rescue medication may be a potential confounder of the pain VAS evaluation, three approaches were used when analyzing pain VAS scores to account for the influence of pain meds (assuming 4 hours of rescue medication effect): (1) any recorded VAS score within 4 hours after use of rescue medication was considered missing; (2) all the recorded VAS scores was used; and (3) any recorded VAS scores within 4 hours after rescue medication use was imputed by the record taken prior to the rescue medication.
# [2] = PRK study: plasma pharmacokinetics of compound I; format: in vivo, human; conditions: for Tmax: read-out: Tmax, Min, Max
# Experimental: Pharmacokinetic (PK) samples were collected at the time points defined in the visit schedule supra, with PK blood collection windows shown in Table 9.
# All blood samples (3 mL) were taken from the arm by either direct venipuncture or an indwelling catheter inserted in a forearm vein. After each tube of blood was drawn, it was immediately inverted gently 8-10 times to ensure the mixing of tube contents with anticoagulant (3 mL K2 EDTA). Prolonged sample contact with the rubber stopper was avoided and the tubes were placed upright in a test tube rack surrounded by wet ice until centrifugation.
# Within 30 minutes, the sample was centrifuged at about 5° C. for 10 minutes at approximately 2000 G (or the sample was placed on ice and centrifuged at room temperature). Immediately after centrifugation, the whole supernatant (approx. 1.5 mL) was transferred in the first 1.8 mL NUNC 2D barcoded cryovial. After mixing the plasma thoroughly, half of the plasma was transferred from the first cryovial to the second cryovial and the caps were secured. Appropriate PK cryolabels were attached to each cryovial and the labels were secured with clear tape. The cryovials were frozen immediately over dry ice then, kept frozen at ≤−20° C. until shipment to the central lab. The vials were shipped in biweekly batches.
# Compound I was quantified in plasma using a validated LC-MS/MS method; the lower limit of quantification (LLOQ) was 0.05 ng/mL. Concentrations were expressed in ng per mL units. When feasible, bandage contact lenses (BCL) exposed to study drug were collected and analyzed for residual drug exposure after treatment (LLOQ: 5.00 ng/mL in 0.55 mL of extraction fluid, or 2.75 ng/BCL). Concentrations below the LLOQ were reported as “zero” and missing data were labeled as such.
# The following PK parameters were determined as relevant using the actual recorded sampling times and non-compartmental method with Phoenix™ WinNonlin® (Version 6.4): Cmax, Tmax, AUClast (calculated), Clast and Tlast from the plasma concentration-time data. Pre-dose concentrations were determined by inspection at nominal 0, 24 and 72 hours. The linear trapezoidal rule was used for AUClast calculation. No PK parameters were calculated from the bandage contact lenses compound I concentration data.
# [3] = across 4 days of repeated QID dosing
# [4] = plasma, Day 1 (first dose), 2.5% topical ocular
# [5] = plasma, Day 1 (first dose), 2.5% topical ocular, N 34
# [6] = plasma, Day 4 (13th dose), 2.5% four times daily
smiles,measurement,setting,value
"CC(C)c1nc2cc(O)ccc2c(=O)n1-c1ccc(C#N)cc1 [Compound I, 4-(7-hydroxy-2-isopropyl-4-oxo-4H-quinazolin-3-yl)-benzonitrile]","Amount of ORM (Number of pills), % Change (Compound I-Vehicle)/Vehicle",[1]; 0-6 hours post-operatively,−25%
same,"Amount of ORM (mg/kg of body weight), % Change (Compound I-Vehicle)/Vehicle",[1]; 0-6 hours post-operatively,−25%
same,Number of patients who did not use oral rescue medication,[1]; 0-6 hours post-operatively,23 (57.5%) n (%)
same,"Amount of oral rescue medication (Number of pills), Mean (SD)",[1]; 0-6 hours post-operatively,0.75 (1.032) Number of pills
same,"Amount of oral rescue medication (Number of pills), Range",[1]; 0-6 hours post-operatively,0.0-4.0 Number of pills
same,"Amount of oral rescue medication (mg/kg of body weight), Range",[1]; 0-6 hours post-operatively,0.0-19.2 mg/kg of body weight
same,"Amount of oral rescue medication (mg/kg of body weight), Mean (SD)",[1]; 0-6 hours post-operatively,3.32 (4.684) mg/kg of body weight
same,"Number of patients who did not use ORM, compound I-treated eye compared to Vehicle-treated eye","[1]; 0-6 hours, 0-12 hours and 0-24 hours post-operatively",higher
same,"Amount of ORM (Number of pills), % Change (Compound I-Vehicle)/Vehicle",[1]; 0-12 hours post-operatively,−15%
same,"Amount of ORM (mg/kg of body weight), % Change (Compound I-Vehicle)/Vehicle",[1]; 0-12 hours post-operatively,−17%
same,Number of patients who did not use oral rescue medication,[1]; 0-12 hours post-operatively,19 (47.5%) n (%)
same,"Amount of oral rescue medication (Number of pills), Mean (SD)",[1]; 0-12 hours post-operatively,1.40 (1.780) Number of pills
same,"Amount of oral rescue medication (Number of pills), Range",[1]; 0-12 hours post-operatively,0.0-6.0 Number of pills
same,"Amount of oral rescue medication (mg/kg of body weight), Range",[1]; 0-12 hours post-operatively,0.0-28.7 mg/kg of body weight
same,"Amount of oral rescue medication (mg/kg of body weight), Mean (SD)",[1]; 0-12 hours post-operatively,6.10 (8.062) mg/kg of body weight
same,"Amount of ORM (Number of pills), % Change (Compound I-Vehicle)/Vehicle",[1]; 0-24 hours post-operatively,−16%
same,"Amount of ORM (mg/kg of body weight), % Change (Compound I-Vehicle)/Vehicle",[1]; 0-24 hours post-operatively,−18%
same,Number of patients who did not use oral rescue medication,[1]; 0-24 hours post-operatively,16 (40.0%) n (%)
same,"Amount of oral rescue medication (Number of pills), Mean (SD)",[1]; 0-24 hours post-operatively,2.35 (2.751) Number of pills
same,"Amount of oral rescue medication (Number of pills), Range",[1]; 0-24 hours post-operatively,0.0-10.0 Number of pills
same,"Amount of oral rescue medication (mg/kg of body weight), Range",[1]; 0-24 hours post-operatively,0.0-47.9 mg/kg of body weight
same,"Amount of oral rescue medication (mg/kg of body weight), Mean (SD)",[1]; 0-24 hours post-operatively,10.17 (12.335) mg/kg of body weight
same,Number of patients who did not use oral rescue medication,[1]; 0-2 days post-operatively,11 (27.5%) n (%)
same,"Amount of ORM (Number of pills), % Change (Compound I-Vehicle)/Vehicle",[1]; 0-48 hours post-operatively,−13%
same,"Amount of ORM (mg/kg of body weight), % Change (Compound I-Vehicle)/Vehicle",[1]; 0-48 hours post-operatively,−14%
same,"Amount of oral rescue medication (Number of pills), Mean (SD)",[1]; 0-48 hours post-operatively,4.05 (4.466) Number of pills
same,"Amount of oral rescue medication (Number of pills), Range",[1]; 0-48 hours post-operatively,0.0-16.0 Number of pills
same,"Amount of oral rescue medication (mg/kg of body weight), Range",[1]; 0-48 hours post-operatively,0.0-76.6 mg/kg of body weight
same,"Amount of oral rescue medication (mg/kg of body weight), Mean (SD)",[1]; 0-48 hours post-operatively,17.59 (19.850) mg/kg of body weight
same,Number of patients who did not use oral rescue medication,[1]; 0-3 days post-operatively,11 (27.5%) n (%)
same,"Amount of ORM (Number of pills), % Change (Compound I-Vehicle)/Vehicle",[1]; 0-72 hours post-operatively,−14%
same,"Amount of ORM (mg/kg of body weight), % Change (Compound I-Vehicle)/Vehicle",[1]; 0-72 hours post-operatively,−15%
same,"Amount of oral rescue medication (Number of pills), Mean (SD)",[1]; 0-72 hours post-operatively,4.33 (4.896) Number of pills
same,"Amount of oral rescue medication (Number of pills), Range",[1]; 0-72 hours post-operatively,0.0-21.0 Number of pills
same,"Amount of oral rescue medication (mg/kg of body weight), Range",[1]; 0-72 hours post-operatively,0.0-87.4 mg/kg of body weight
same,"Amount of oral rescue medication (mg/kg of body weight), Mean (SD)",[1]; 0-72 hours post-operatively,18.70 (21.509) mg/kg of body weight
same,Amount of ORM (mg/kg of body weight) during compound I vs. Vehicle treatment,[1]; every time interval,less
same,ORM taken during compound I vs. Vehicle treatment (number of pills),[1]; every time interval during the study,less ORM taken
same,Mean AUClast increase over the 4 days (Day 4 vs Day 1),[2]; 2.5% 4 times daily,6.9 fold
same,Mean Cmax after 13th dose on Day 4 relative to first dose on Day 1,[2]; 2.5% 4 times daily,5.3 fold
same,"AUClast, range",[2]; [3],0.261 to 14.5 ng·h/mL
same,"Observed Cmax, range",[2]; [3],0.195 to 7.56 ng/mL
same,Median plasma Tmax,[2]; after either single (first dose) or repeated 4 times daily topical ocular administration,approximately 0.5 hours
same,Cmax,"[2]; human, plasma, topical, 2.5 % (four times daily), across 4 days of repeated QID dosing, read-out: Observed Cmax, range",0.195 to 7.56 ng/mL
same,Tmax,"[2]; human, topical or ocular, plasma, Day 1 (first dose), 2.5% topical ocular",10 to 120 min
same,Tmax,"[2]; human, topical, plasma, Day 4 (13th dose), 2.5% four times daily",0 to 125 min
same,"AUClast, Median",[2]; [4],0.569 ng·h/mL
same,"Cmax, Median",[2]; [4],0.375 ng/mL
same,"Tmax, Median",[2]; [4],27.5 min
same,"AUClast, Mean (SD)",[2]; [5],0.638 ng·h/mL
same,"Cmax, Mean (SD)",[2]; [5],0.454 ng/mL
same,"AUClast, Median",[2]; [6],3.42 ng·h/mL
same,"Cmax, Median",[2]; [6],2.07 ng/mL
same,"Tmax, Median",[2]; [6],28 min
same,"AUClast, Mean (SD)","[2]; plasma, Day 4 (13th dose), 2.5% four times daily, N 31",4.38 ng·h/mL
same,"Cmax, Mean (SD)","[2]; plasma, Day 4 (13th dose), 2.5% four times daily, N 33",2.40 ng/mL
same,Trough mean plasma concentration (end of 6-hour dose interval),[2]; prior to the 5th dose on Day 2 (24 hr post 1st dose),1.25 ng/mL
same,Trough mean plasma concentration (end of 6-hour dose interval),[2]; prior to the 13th dose on Day 4 (72 hr post 1st dose),1.99 ng/mL
